Patent US20200179488A1, “Secretin Receptor Agonists to Treat Diseases or Disorders of Energy Homeostasis” (Technische Universität München, priority 2016, published 2020)

System: UCP1 expression
Experiment: UCP1 mRNA expression (qRT-PCR) in primary adipocytes from interscapular brown adipose tissue
Assay type: cell-based, Mus musculus
Details: 0.1 μM secretin or 0.5 μM isoproterenol, 6 hours, normalized to TFIIB (FIG. 4B)
Method: For culturing primary adipocytes male 129S1/SvImJ mice ([…] or UCP1-KO mice and wildtype littermates) at the age of 5-6 weeks were used for the dissection of inguinal and epidydimal white adipose tissue and interscapular brown adipose tissue depots. The tissue was carefully minced and treated with collagenase for 45 min at 37° C. The homogenate was filtered through a 250 μm nylon mesh and centrifuged at 500 g to collect the stromal vascular fraction (SVF). The SVF cell pellet was rinsed and seeded into XF96 V3-PS cell culture microplate (Seahorse Bioscience). After reaching confluency, induction medium containing 10% fetal bovine serum (FBS), 0.5 mM isobutylmethylxanthine, 125 nM indomethacin, 1 mM dexamethasone, 850 nM insulin and 1 nM T3 was added. […] Respiration was measured on day 7 of differentiation. […] RNA was eluted in 50 μl nuclease-free water and RNA concentration was determined spectrophotometrically (Infinite 200 PRO NanoQuant, Tecan, Männedorf/Switzerland). Reverse transcription into cDNA was performed with 500 ng RNA in a final volume of 10 μl (Quantitect Reverse Transcription Kit, Quiagen, Hilden/Germany). qRT-PCR was conducted on 384 well plates in a total volume of 12.5 μl comprising 6.25 μl SensiMix SYBR No-ROX (Bioline, London/UK), 250 nM forward and reverse primers, and 1 μl template cDNA (LightCycler 480 System, Roche Diagnostics, Rotkreuz/Switzerland). […]

secretin was tested, and the “UCP1 mRNA expression in brown adipocytes versus PBS” value was “significantly increased the expression of the UCP1 gene”.
